Measured values: patent publication US20050197350A1, “Novel quinoline, tetrahydroquinazoline, and pyrimidine derivatives and methods of treatment related to the use thereof” (TAISHO PHARMACEUTICAL CO., LTD., priority 2003, published 2005)
Structures can show the parent of a compound that is named as a salt.

These compounds were tested against MCH receptor (Homo sapiens, UniProt Q99705) (assay: High throughput functional screening FLIPR/FDSS6000 (intracellular Ca2+ evoked by MCH)). Details: FLIPR/FDSS, antagonist activity vs 50 nM MCH; class by percent of control at 10^−7 M or IC50; table after the classification; read-out: class.
Type: cell-based
Method in brief: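 For antagonist testing, compound-treated cells (30 min, 37 °C) were stimulated with 50 nM MCH and intracellular Ca2+ followed by Fluo4 fluorescence on FLIPR/FDSS6000. Receptor was a constitutively active, non-endogenous MCH receptor; dye loading 4 μM Fluo4-AM, 1 h, 37 °C.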
Work on `CN(C)c1nc(N[C@H]2CC[C@@H](NC(=O)c3cccnc3Oc3ccccc3)CC2)ncc1F` [Example 3140, N-[cis-4-(4-Dimethylamino-5-fluoro-pyrimidin-2-ylamino)-cyclohexyl]-2-phenoxy-nicotinamide hydrochloride] yielded an IC50 of 50 to 200 nM. With `CN(C)c1nc(N[C@H]2CC[C@@H](NC(=O)c3cccnc3Oc3ccccc3)CC2)ncc1Br` [Example 3141, N-[cis-4-(5-Bromo-4-dimethylamino-pyrimidin-2-ylamino)-cyclohexyl]-2-phenoxy-nicotinamide hydrochloride] the IC50 was 50 to 200 nM. With `Cc1cc(C)nc(N[C@H]2CC[C@@H](NC(=O)c3ccc(F)c(F)c3)CC2)n1` [Example 3142, N-[cis-4-(4,6-Dimethyl-pyrimidin-2-ylamino)-cyclohexyl]-3,4-difluoro-benzamide hydrochloride] the IC50 was > 200 nM. `Cc1cc(C)nc(N[C@H]2CC[C@@H](NC(=O)c3cccnc3Oc3ccccc3)CC2)n1` [Example 3143, N-[cis-4-(4,6-Dimethyl-pyrimidin-2-ylamino)-cyclohexyl]-2-phenoxy-nicotinamide hydrochloride] was tested, and the IC50 was > 200 nM. `O=C(N[C@H]1CC[C@@H](Nc2ncccn2)CC1)c1ccc(F)c(F)c1` [Example 3144, 3,4-Difluoro-N-[cis-4-(pyrimidin-2-ylamino)-cyclohexyl]-benzamide hydrochloride] was tested, and the IC50 was > 200 nM. In the case of `CN(C)c1ccnc(N[C@H]2CC[C@@H](CNC(=O)c3cccnc3Oc3ccccc3)CC2)n1` [Example 3145, N-[cis-4-(4-Dimethylamino-pyrimidin-2-ylamino)-cyclohexylmethyl]-2-phenoxy-nicotinamide hydrochloride], the IC50 is reported as > 200 nM. `O=C(N[C@H]1CC[C@@H](Nc2ccc3ccccc3n2)CC1)c1cccc(O)c1` [Example 3146, 3-Hydroxy-N-[cis-4-(quinolin-2-ylamino)-cyclohexyl]-benzamide hydrochloride] was tested, and the IC50 was < 50 nM. Compound `COC(=O)c1cccc(C(=O)N[C@H]2CC[C@@H](Nc3ccc4ccccc4n3)CC2)c1` [Example 3147, N-[cis-4-(Quinolin-2-ylamino)-cyclohexyl]-isophthalamic acid methyl ester hydrochloride] has an IC50 of 50 to 200 nM. For `O=C(N[C@H]1CC[C@@H](Nc2ccc3ccccc3n2)CC1)c1cc(C(F)(F)F)cc(C(F)(F)F)c1` [Example 3148, N-[cis-4-(Quinolin-2-ylamino)-cyclohexyl]-3,5-bis-trifluoromethyl-benzamide hydrochloride], the IC50 was > 200 nM. `O=C(N[C@H]1CC[C@@H](Nc2ccc3ccccc3n2)CC1)c1cccc(OC(F)(F)F)c1` [Example 3149, N-[cis-4-(Quinolin-2-ylamino)-cyclohexyl]-3-trifluoromethoxy-benzamide hydrochloride] was tested, and the IC50 was 50 to 200 nM. For `O=C(O)c1cccc(C(=O)N[C@H]2CC[C@@H](Nc3ccc4ccccc4n3)CC2)c1` [Example 3150, N-[cis-4-(Quinolin-2-ylamino)-cyclohexyl]-isophthalamic acid], the IC50 was > 200 nM. With `CCN(CC(=O)N[C@H]1CC[C@@H](Nc2ccc3ccccc3n2)CC1)c1ccccc1` [Example 3151, C-(Ethyl-phenyl-amino)-N-[cis-4-(quinolin-2-ylamino)-cyclohexyl]-acetamide dihydrochloride] the IC50 was < 50 nM. `O=C(N[C@H]1CC[C@@H](Nc2ccc3ccccc3n2)CC1)c1cc(F)cc(F)c1` [Example 3152, 3,5-Difluoro-N-[cis-4-(quinolin-2-ylamino)-cyclohexyl]-benzamide hydrochloride] was tested, and the IC50 was < 50 nM. In the case of `O=C(N[C@H]1CC[C@@H](Nc2ccc3ccccc3n2)CC1)c1ccc(Cl)c(F)c1` [Example 3153, 4-Chloro-3-fluoro-N-[cis-4-(quinolin-2-ylamino)-cyclohexyl]-benzamide-hydrochloride], the IC50 is reported as < 50 nM. `CCN(CC(=O)N[C@H]1CC[C@@H](Nc2ccc3ccccc3n2)CC1)c1ccc(Cl)cc1` [Example 3154, C-[(4-Chloro-phenyl)-ethyl-amino]-N-[cis-4-(quinolin-2-ylamino)-cyclohexyl]-acetamide dihydrochloride] was tested, and the IC50 was < 50 nM. With `NC(=O)c1cccc(C(=O)N[C@H]2CC[C@@H](Nc3ccc4ccccc4n3)CC2)c1` [Example 3155, N-[cis-4-(Quinolin-2-ylamino)cyclohexyl]-isophthalamide hydrochloride] the IC50 was > 200 nM. In the case of `O=C(N[C@H]1CC[C@@H](NCc2ccc3ccccc3n2)CC1)c1ccc(F)c(F)c1` [Example 3156, 3,4-Difluoro-N-{cis-4-[(quinolin-2-ylmethyl)-amino]-cyclohexyl}-benzamide dihydrochloride], the IC50 is reported as > 200 nM. `Cc1cc(N[C@H]2CC[C@@H](NC(=O)c3cc(C(F)(F)F)cc(C(F)(F)F)c3)CC2)nc2ccccc12` [Example 3157, N-[cis-4-(4-Methyl-quinolin-2-ylamino)-cyclohexyl]-3,5-bis-trifluoromethyl-benzamide hydrochloride] gave an IC50 of 50 to 200 nM. With `Cc1cc(N[C@H]2CC[C@@H](NC(=O)c3cccc(OC(F)(F)F)c3)CC2)nc2ccccc12` [Example 3158, N-[cis-4-(4-Methyl-quinolin-2-ylamino)-cyclohexyl]-3-trifluoromethoxy-benzamide hydrochloride] the IC50 was < 50 nM. For `Cc1cc(N[C@H]2CC[C@@H](NC(=O)c3cccc(O)c3)CC2)nc2ccccc12` [Example 3160, 3-Hydroxy-N-[cis-4-(4-methyl-quinolin-2-ylamino)-cyclohexyl]-benzamide hydrochloride], the IC50 was < 50 nM. For `Cc1cc(N[C@H]2CC[C@@H](NC(=O)c3cccnc3N)CC2)nc2ccccc12` [Example 3161, 2-Amino-N-[cis-4-(4-methyl-quinolin-2-ylamino)-cyclohexyl]-nicotinamide dihydrochloride], the IC50 was 50 to 200 nM. `Cc1cc(N[C@H]2CC[C@@H](NC(=O)c3cccc(F)c3F)CC2)nc2ccccc12` [Example 3162, 2,3-Difluoro-N-[cis-4-(4-methyl-quinolin-2-ylamino)-cyclohexyl]-benzamide hydrochloride] gave an IC50 of 50 to 200 nM. For `Cc1cc(N[C@H]2CC[C@@H](NC(=O)c3ccc(F)cc3F)CC2)nc2ccccc12` [Example 3163, 2,4-Difluoro-N-[cis-4-(4-methyl-quinolin-2-ylamino)-cyclohexyl]-benzamide hydrochloride], the IC50 was < 50 nM. With `Cc1cc(N[C@H]2CC[C@@H](NC(=O)c3cc(F)ccc3F)CC2)nc2ccccc12` [Example 3164, 2,5-Difluoro-N-[cis-4-(4-methyl-quinolin-2-ylamino)-cyclohexyl]-benzamide hydrochloride] the IC50 was 50 to 200 nM. Work on `Cc1cc(N[C@H]2CC[C@@H](NC(=O)c3c(F)cccc3F)CC2)nc2ccccc12` [Example 3165, 2,6-Difluoro-N-[cis-4-(4-methylquinolin-2-ylamino)-cyclohexyl]-benzamide hydrochloride] yielded an IC50 of 50 to 200 nM. With `Cc1cc(N[C@H]2CC[C@@H](NC(=O)c3cc(F)cc(F)c3)CC2)nc2ccccc12` [Example 3166, 3,5-Difluoro-N-[cis-4-(4-methylquinolin-2-ylamino)-cyclohexyl]-benzamide hydrochloride] the IC50 was < 50 nM. With `Cc1cc(N[C@H]2CC[C@@H](NC(=O)c3ccc(Cl)c(F)c3)CC2)nc2ccccc12` [Example 3168, 4-Chloro-3-fluoro-N-[cis-4-(4-methyl-quinolin-2-ylamino)-cyclohexyl]-benzamide hydrochloride] the IC50 was < 50 nM. `Cc1cc(N[C@H]2CC[C@@H](NC(=O)c3ccc(F)cc3)CC2)nc2ccccc12` [Example 3169, 4-Fluoro-N-[cis-4-(4-methyl-quinolin-2-ylamino)-cyclohexyl]-benzamide hydrochloride] was tested, and the IC50 was < 50 nM. `Cc1cc(N[C@H]2CC[C@@H](NC(=O)c3cccc(F)c3)CC2)nc2ccccc12` [Example 3170, 3-Fluoro-N-[cis-4-(4-methyl-quinolin-2-ylamino)-cyclohexyl]-benzamide hydrochloride] was tested, and the IC50 was < 50 nM. `Cc1cc(N[C@H]2CC[C@@H](NC(=O)c3ccccc3F)CC2)nc2ccccc12` [Example 3171, 2-Fluoro-N-[cis-4-(4-methyl-quinolin-2-ylamino)-cyclohexyl]-benzamide hydrochloride] was tested, and the IC50 was 50 to 200 nM. `Cc1cc(N[C@H]2CC[C@@H](NC(=O)c3ccc(Cl)cc3)CC2)nc2ccccc12` [Example 3172, 4-Chloro-N-[cis-4-(4-methyl-quinolin-2-ylamino)-cyclohexyl]-benzamide hydrochloride] was tested, and the IC50 was < 50 nM. For `Cc1cc(N[C@H]2CC[C@@H](NC(=O)c3cccnc3O)CC2)nc2ccccc12` [Example 3173, 2-Hydroxy-N-[cis-4-(4-methyl-quinolin-2-ylamino)-cyclohexyl]-nicotinamide hydrochloride], the IC50 was > 200 nM. With `COC(=O)c1cccc(C(=O)N[C@H]2CC[C@@H](Nc3cc(C)c4ccccc4n3)CC2)c1` [Example 3174, N-[cis-4-(4-Methylquinolin-2-ylamino)-cyclohexyl]-isophthalamic acid-methyl ester hydrochloride] the IC50 was < 50 nM. With `Cc1cc(N[C@H]2CC[C@@H](NC(=O)c3ccc(Cl)nc3)CC2)nc2ccccc12` [Example 3175, 6-Chloro-N-[cis-4-(4-methyl-quinolin-2-ylamino)-cyclohexyl]-nicotinamide hydrochloride] the IC50 was < 50 nM. In the case of `Cc1cc(N[C@H]2CC[C@@H](NC(=O)c3ccc(N(C)C)nc3)CC2)nc2ccccc12` [Example 3176, 6-Dimethylamino-N-[cis-4-(4-methyl-quinolin-2-ylamino)-cyclohexyl]-nicotinamide dihydrochloride], the IC50 is reported as 50 to 200 nM. Compound `Cc1cc(N[C@H]2CC[C@@H](NC(=O)c3cccc(CO)c3)CC2)nc2ccccc12` [Example 3177, 3-Hydroxymethyl-N-[cis-4-(4-methyl-quinolin-2-ylamino)-cyclohexyl]-benzamide hydrochloride] has an IC50 of 50 to 200 nM. `Cc1cc(N[C@H]2CC[C@@H](NC(=O)c3cccc(C(N)=O)c3)CC2)nc2ccccc12` [Example 3178, N-[cis-4-(4-Methylquinolin-2-ylamino)-cyclohexyl]-isophthalamide hydrochloride] was tested, and the IC50 was 50 to 200 nM.
